Experimental data from the NIST ThermoML archive (doi:10.1021/acs.jced.7b00106).

Settings: Liquid, Hot wire method

FC(F)(F)/C=C/Cl [(E)-1-chloro-3,3,3-trifluoroprop-1-ene]
Settings | thermal conductivity [W/m/K]
422.96 K, 4305 kPa | 0.05253
422.96 K, 20042 kPa | 0.06564
422.97 K, 20051 kPa | 0.06568
423 K, 10141 kPa | 0.05847
423 K, 10146 kPa | 0.05853
423 K, 25690 kPa | 0.06899
423.02 K, 28110 kPa | 0.07042
423.03 K, 28120 kPa | 0.07037
423.04 K, 17472 kPa | 0.06399
423.04 K, 17483 kPa | 0.06401
423.05 K, 25698 kPa | 0.06896
423.06 K, 8781 kPa | 0.05726
423.06 K, 8783 kPa | 0.05728
423.07 K, 7608 kPa | 0.05614
423.07 K, 7616 kPa | 0.05619
423.07 K, 15379 kPa | 0.06256
423.08 K, 15382 kPa | 0.06257
423.1 K, 6613 kPa | 0.05516
423.11 K, 6611 kPa | 0.05515
423.11 K, 22703 kPa | 0.06725
423.11 K, 28104 kPa | 0.07029
423.12 K, 22728 kPa | 0.06757
423.12 K, 28121 kPa | 0.07049
423.14 K, 5716 kPa | 0.05419
423.15 K, 5712 kPa | 0.0542
423.15 K, 13390 kPa | 0.06109
423.15 K, 13399 kPa | 0.06114
423.2 K, 4943 kPa | 0.05335
423.2 K, 4945 kPa | 0.0533
423.2 K, 11667 kPa | 0.05975
423.21 K, 11671 kPa | 0.05977
423.21 K, 20041 kPa | 0.06545
423.21 K, 20058 kPa | 0.06566
423.26 K, 25692 kPa | 0.06895
423.26 K, 25702 kPa | 0.06897
423.27 K, 10146 kPa | 0.05849
423.28 K, 10147 kPa | 0.05852
423.29 K, 17476 kPa | 0.06396
423.3 K, 17478 kPa | 0.064
423.3 K, 28106 kPa | 0.07034
423.31 K, 28126 kPa | 0.07033
423.32 K, 8771 kPa | 0.05728
423.33 K, 8783 kPa | 0.05728
423.35 K, 7611 kPa | 0.05616
423.35 K, 7616 kPa | 0.05621
423.35 K, 15369 kPa | 0.06251
423.35 K, 15382 kPa | 0.06259
423.37 K, 22716 kPa | 0.06724
423.37 K, 22722 kPa | 0.06728
423.38 K, 6613 kPa | 0.0552
423.38 K, 28103 kPa | 0.07024
423.39 K, 28113 kPa | 0.07028
423.4 K, 6606 kPa | 0.05518
423.43 K, 13394 kPa | 0.06111
423.44 K, 5711 kPa | 0.05425
423.44 K, 5715 kPa | 0.05429
423.44 K, 13394 kPa | 0.06111
423.48 K, 20043 kPa | 0.06561
423.48 K, 20053 kPa | 0.06564
423.49 K, 11667 kPa | 0.05991
423.49 K, 11670 kPa | 0.05977
423.54 K, 25699 kPa | 0.06893
423.55 K, 25702 kPa | 0.06894
423.56 K, 10145 kPa | 0.05848
423.56 K, 10147 kPa | 0.05849
423.57 K, 17456 kPa | 0.06393
423.57 K, 17477 kPa | 0.0642
423.6 K, 28105 kPa | 0.07025
423.62 K, 8777 kPa | 0.05731
423.62 K, 28121 kPa | 0.07026
423.63 K, 8770 kPa | 0.05731
423.63 K, 15380 kPa | 0.06255
423.64 K, 15380 kPa | 0.06256
